# Values quoted from earlier work in patent publication US8598325B2, “Solid-phase microextraction coatings and methods for their preparation” (priority 2002, dated 2013).
# Where two headings read alike, the source gives them in different places.
# Legend:
# [1] = not given; remark: listed apart in the source
# [2] = at 25° C.
Compound,LogP (pH 7),Sol. in water [1] [mg/L],Vapour Pressure [2] [mPa],"LogP (at pH 7, 20° C.)"
"CCCCC(O)(Cn1cncn1)c1ccc(Cl)cc1Cl (centres unmarked) [Hexaconazole, hexaconazole]",3.9,–,–,–
"CCCC(Cn1cncn1)c1ccc(Cl)cc1Cl (centres unmarked) [Penconazole, penconazole]",3.72,73,0.366,–
"CC(C)(C)C(=O)C(Oc1ccc(Cl)cc1)n1cncn1 (centres unmarked) [Triadimefon, triadimefon]",–,70,0.02,3.18
"CC(C)(C)C(O)C(Oc1ccc(Cl)cc1)n1cncn1 (centres unmarked) [Triadimenol, triadimenol]",3.18,–,–,–
